Reference: patent US20260294845A1, “Uses of Adrenalone to Manage Cardiotoxicity or Cardiovascular Disorders” (Emory University, priority 2023, published 2026)
“Also recorded” adds a separate entry of the source.

What was measured:
[1] = system: patients; settings: cancer patients on therapy; cited from earlier work
[2] = system: hiPSC-CMs; assay: Cell viability of hiPSC-CMs treated with doxorubicin with or without 4H10 (CellTiter-Blue); format: cell-based, human
From the text: Doxorubicin is a widely used chemotherapy drug for various cancers, including breast cancer, leukemia, and lymphoma. However, one significant side effect associated with doxorubicin use is cardiotoxicity. It is contemplated that 4H10 may target common mechanisms of cardiotoxicity and have a broad impact of cardioprotection since it protects hiPSC-CMs from toxicity induced by both ethanol and carfilzomib.

[3] = system: SCVI-273 hiPSC-CMs; assay: Cell viability of EtOH-treated hiPSC-CMs derived from SCVI-273 hiPSCs; format: cell-based, human; settings: another cell line SCVI-273
From the text: (§1) EtOH-induced cardiotoxicity shares common disease phenotypes and possibly similar underlying mechanisms with drug-induced cardiotoxicity.

[4] = system: hiPSC-CMs; assay: MitoTracker Red staining (mitochondrial content and activity) of carfilzomib-treated hiPSC-CMs, high-content imaging; format: cell-based, human; settings: 24 h
Protocol: MitoTracker™ Red staining was performed in IMR-90 hiPSC-CMs treated with CFZ with or without 4H10 for 24 hours.
(§2) A human induced pluripotent cell line (hiPSC line IMR90™, WiCell Research Institute) was fed daily on Matrigel™-coated plates with a defined medium for hiPSC culture, mTeSR1 medium. For CM differentiation, hiPSCs were induced using a growth factor-driven differentiation protocol as reported in Jha et al. Efficient differentiation of cardiomyocytes from human pluripotent stem cells with growth factors. Methods Mol Biol, 2015, 1299, 115-131. On the day of induction (day 0), medium was replaced with RPMI 1640 medium supplemented with 2% B27 minus insulin (a cell culture supplement) containing 100 ng/ml activin A. After induction for 24 h, the medium was replaced with fresh RPMI supplemented with 2% B27 minus insulin containing 10 ng/ml BMP4. From day 4 of differentiation, the medium was replaced with RPMI supplemented with 2% B27. On day 5, the cells were dissociated and reseeded into AggreWell400™ plates to acquire cardiac spheres. After 24 h, the cardiac spheres formed were collected and transferred to low-adhesion dishes for suspension culture. The medium was changed every other day. Cardiac spheres typically started beating spontaneously by day 7 to 9.
Mitochondria play a crucial role in energy production, cellular metabolism, and the regulation of cell death. Experiments indicate carfilzomib induces mitochondrial dysfunction in hiPSC-CMs. To assess the potential mitigating effects of 4H10 on carfilzomib-induced mitochondrial dysfunction, hiPSC-CMs were treated with carfilzomib alone or co-treated with 4H10 at various concentrations. Mitochondria were then visualized using MitoTracker™ Red dyes, which can accumulate in active mitochondria and allow for the measurement of mitochondrial content and activity in live cells.

[5] = system: hiPSC-CMs; assay: Intracellular oxidative stress (ROS) of carfilzomib-treated hiPSC-CMs, DCFDA/H2DCFDA assay; format: cell-based, human; settings: 24 h
Protocol: The quantification of oxidative stress was performed using DCFDA staining of SCVI hiPSC-CMs treated with Cfz with or without 4H10 for 24 hours.
The induction of oxidative stress is a crucial mechanism through which proteasome inhibitors induce apoptosis. To investigate if 4H10 could alleviate carfilzomib-induced increase of oxidative stress in cardiomyocytes, hiPSC-CMs were exposed to carfilzomib at 5 μM alone or together with 4H10 at various concentrations for 24 h. The production of cellular reactive oxygen species (ROS) was then measured using DCFDA/H2DCFDA assay kit.

[6] = system: hiPSC-CMs; assay: Cell viability assay and cell counting (high-content imaging) of EtOH-challenged hiPSC-CMs; format: cell-based, human
From the text: as §1

[7] = system: proteasome; assay: Proteasome activity in RPMI8226 cells after carfilzomib with or without 4H10; format: cell-based; settings: 4H10 with carfilzomib, 24 h
Protocol: (§3) (top) Proteasome activity of IMR-90 hiPSC-CMs was measured after the cells were treated with CFZ with or without 4H10 for 24 hours. (bottom, right, left) Proteasome activity and cell viability of RPMI8226 cells (cancer cells) were measured after the cells were treated with CFZ with or without 4H10 for 24 hours.
(§4) Experiments were designed to determine the effects of carfilzomib and 4H10 on proteasome activity and cell viability of RPMI8226 cell line, which has been investigated for the efficacy tests of carfilzomib in […].

[8] = system: hiPSC-CMs; assay: Oxidative stress in EtOH-treated hiPSC-CMs; format: cell-based, human
From the text: as §1

[9] = system: hiPSC-CMs; assay: Cardiac troponin T expression and mitochondrial content in EtOH-treated hiPSC-CMs; format: cell-based, human
From the text: as §1

[10] = system: proteasome; assay: Proteasome activity in hiPSC-CMs after carfilzomib with or without 4H10; format: cell-based, human; settings: 4H10 co-treatment with carfilzomib, 24 h, IMR-90 hiPSC-CMs
Protocol: as §3
The proteasome, responsible for the regulated degradation of proteins, is a key cellular component targeted by carfilzomib as part of its mechanism of action in cancer therapy. Therefore, in addition to validation of cardioprotective effects of 4H10 on cell viability and mitochondrial function, it is crucial to examine if 4H10 compromises the proteasome inhibition efficacy of carfilzomib.

[11] = system: RPMI8226 cells; assay: Cell viability of RPMI8226 cells after carfilzomib with or without 4H10; format: cell-based; settings: 4H10 co-treatment with carfilzomib, 24 h
Protocol: as §3, §4

[12] = system: hiPSC-CMs; assay: Cell viability of hiPSC-CMs treated with carfilzomib with or without 4H10 (CellTiter-Blue); format: cell-based, human; settings: for mitigation of carfilzomib-induced cytotoxicity: co-treatment of hiPSC-CMs with carfilzomib
Protocol: Cell viability was analyzed after IMR-90 hiPSC-CMs were treated with carfilzomib (CFZ) with or without 4H10 for 24 hours. (n=5 cultures).
as §2
(§5) Cardiomyocytes derived from human pluripotent stem cells (hiPSC-CMs) were provide a new platform for the studies of cancer drug-induced side effects and therapies. Using these cells, lead molecules were identified indicating protective properties on cardiomyocytes from the toxic effect of chemotherapy agents and ethanol (EtOH). […] Oxidative stress is a common molecular mechanism for cardiotoxicity induced by chemotherapy including proteosome inhibitors.
Consistently, treatment of hiPSC-CMs induced cell death and cytotoxicity. To examine if 4H10 could protect cardiomyocytes from carfilzomib-induced cytotoxicity, hiPSC-CMs were treated with carfilzomib at 5 μM alone or together with 4H10 at various concentrations for 24 h and then examined cell viability using the CellTiter-Blue Cell Viability Assay. Cells treated with DMSO (vehicle) were used as a control.

[13] = system: hiPSC-CMs; assay: Effects of chemotherapeutic agents on function of hiPSC-CMs; format: cell-based, human; settings: melphalan treatment
[14] = system: hiPSC-CMs; assay: Mitochondrial oxidative stress caused by bortezomib (PS-341); format: cell-based, human; settings: with bortezomib
From the text: as §5

[15] = system: α1-AR; settings: literature knowledge; cited from earlier work
[16] = system: α1-AR; assay: Staining of hiPSC-CMs with BODIPY-FL-prazosin for α1-AR expression; format: cell-based, human; settings: fluorescent staining, α1-AR expression and localization
From the text: The expression of α1-AR was detected in hiPSC-CMs based on the BODIPY FL prazosin signals.

[17] = system: hiPSC-CMs; settings: Liu et al., 2021; cited from earlier work
[18] = system: hiPSC-CMs; assay: Chronic ethanol exposure of hiPSC-CMs: cellular properties, functions and global proteomic profiling; format: cell-based, human
Protocol: Cardiomyocytes derived from human pluripotent stem cells (hiPSC-CMs) were treated with clinically relevant doses of ethanol for various durations up to 5 weeks. The treated cells were characterized for their cellular properties and functions, and global proteomic profiling was conducted.

[19] = clinically relevant doses of ethanol, up to 5 weeks

## COc1cccc2c1C(=O)c1c(O)c3c(c(O)c1C2=O)C[C@@](O)(C(=O)CO)C[C@@H]3O[C@H]1C[C@H](N)[C@H](O)[C@H](C)O1 [doxorubicin]
[1]
  cardiac adverse events in patients: cardiotoxicity
[2]; doxorubicin 1-10 μM alone, 24 h, compared with untreated cells
  cell viability after doxorubicin: significant decrease in cell viability

## CNCC(=O)c1ccc(O)c(O)c1 [4H10]
[3]
  cell viability, EtOH-treated SCVI-273 hiPSC-CMs: increased cell viability
[4]; 4H10 at 10 μM or higher + carfilzomib, dose-dependent
  MitoTracker Red fluorescence intensity on co-treatment: increase in fluorescence intensity
[4]; co-treatment with carfilzomib
  mitigation of carfilzomib-induced mitochondrial defects: mitigates carfilzomib-induced mitochondrial defects; also recorded: mitigated carfilzomib-induced mitochondrial defects in hiPSC-CMs in a dose-dependent manner
[5]; 4H10 at 5 μM or higher + carfilzomib 5 μM, dose-dependent
  DCFDA fluorescence intensity on co-treatment: reduction of DCFDA fluorescence intensity
[5]; co-treatment with carfilzomib, SCVI hiPSC-CMs
  mitigation of carfilzomib-induced oxidative stress: mitigates carfilzomib-induced intracellular oxidative stress; also recorded: mitigated carfilzomib-induced oxidative stress in hiPSC-CMs in a dose-dependent manner
[6]; hiPSC-CMs
  protection from alcohol-induced cytotoxicity: can protect hiPSC-CMs from alcohol- and carfilzomib-induced cytotoxicity
[6]; hiPSC-CMs challenged with EtOH, cell viability assay and cell counting
  cell survival following EtOH challenge: increased cell survival dose-dependently
[6]; high-content imaging
  cell number after EtOH treatment: attenuated the reduced cell number induced by EtOH treatment
[7]
  change of proteasome activity in RPMI8226 cells by 4H10: did not elicit any changes
[8]
  oxidative stress in EtOH-treated hiPSC-CMs: reduced oxidative stress
[9]
  defects in expression of cardiac troponin T: reduced
  defects in mitochondrial content: reduced
[2]; 4H10 25 μM + doxorubicin 1, 2, 5 or 10 μM, 24 h, compared with doxorubicin
  cell viability after co-treatment with doxorubicin and 4H10: increased cell viability
[2]; 4H10 co-treatment with doxorubicin
  mitigation of doxorubicin-induced cytotoxicity: protects hiPSC-CMs from doxorubicin-induced cytotoxicity; also recorded: mitigated doxorubicin-induced cytotoxicity
[10]
  effect on proteasome inhibition activity of carfilzomib: does not interfere with the proteasome inhibition activity of carfilzomib; also recorded: did not interfere with the proteasome inhibition activity of carfilzomib
[11]
  change of carfilzomib-reduced RPMI8226 viability by 4H10 co-treatment: does not interfere with the proteasome inhibition activity of carfilzomib and the ability of carfilzomib to kill cancer cells; also recorded: not significantly changed
[12]; 4H10 at 25 μM and 50 μM + carfilzomib 5 μM, 24 h
  maximal cytoprotective effect against carfilzomib: maximal cytoprotective effect for the cells to reach viability levels similar to those from DMSO-treated cells
[12]; carfilzomib 5 μM + 4H10 at 5 μM or higher, 24 h, compared (so in the source) with DMSO-treated cells
  cell viability after co-treatment with carfilzomib and 4H10: significantly increased cell viability
[12]
  mitigation of carfilzomib-induced cytotoxicity: protection of hiPSC-CMs from carfilzomib-induced cardiotoxicity; also recorded: reduced cytotoxicity was observed; also recorded: mitigated carfilzomib-induced cytotoxicity in a dose-dependent manner
[12]; listed as adrenalone HCl
  mitigation of carfilzomib-induced cytotoxicity: protected hiPSC-CMs from cardiotoxicity induced by carfilzomib

## melphalan
[1]
  cardiac adverse events in patients: clinically observed arrhythmias
[13]
  cardiotoxicity in hiPSC-CMs: cardiac function: abnormal cardiac function
  cardiotoxicity in hiPSC-CMs: oxidative stress: induces cardiotoxicity, including oxidative stress

## CNCC(=O)c1ccc(O)c(O)c1 [Adrenalone, 1-(3,4-dihydroxyphenyl)-2-(methylamino) ethan-1-one]
[14]
  mitochondrial oxidative stress caused by bortezomib (PS-341): reduced mitochondrial oxidative stress

## BODIPY-FL-prazosin
[15]
  α1-AR affinity / antagonism: high-affinity antagonist
[16]
  BODIPY FL prazosin signals in hiPSC-CMs: co-localized with nuclei

## CCO [ethanol]
[17]
  changes in hiPSC-CMs on chronic ethanol exposure: induces deleterious changes in cardiomyocytes
[18]; [19]
  Ca^2+ handling: deranged Ca^2+ handling
  action potential: abnormal action potential
  cell death: Increased cell death
  contractility: altered contractility
  oxidative stress: Increased cell death, oxidative stress
  structure development: suppressed structure development
[18]; ethanol, up to 5 weeks
  global proteomic profiling: dysregulated proteins: Many dysregulated proteins identified by global proteomic profiling were involved in apoptosis, heart contraction, and extracellular collagen matrix
[18]; long-term ethanol exposure
  signaling pathways affected: several signaling pathways including the Wnt and TGFβ signaling pathways were affected
